Compound `CCOC(=O)[C@@H](C)Oc1ccc(Oc2nc3ccc(Cl)cc3o2)cc1` has a solubility (mole fraction) (in ethanol, 278.15 K) of 0.000972, a solubility (mole fraction) (in ethanol, 283.15 K) of 0.00121 and a solubility (mole fraction) (in ethanol, 288.15 K) of 0.0015. It also gave a solubility (mole fraction) (in ethanol, 293.15 K) of 0.00186, a solubility (mole fraction) (in ethanol, 298.15 K) of 0.00224 and a solubility (mole fraction) (in ethanol, 303.15 K) of 0.00266. It also gave a solubility (mole fraction) (in ethanol, 308.15 K) of 0.00314, a solubility (mole fraction) (in ethanol, 313.15 K) of 0.00376 and a solubility (mole fraction) (in ethanol, 318.15 K) of 0.00446. The solubility (mole fraction) (in ethanol, 323.15 K) was 0.00534, the solubility (mole fraction) (in water, 278.15 K) was 1.93e-06 and the solubility (mole fraction) (in water, 283.15 K) was 2.91e-06. The solubility (mole fraction) (in water, 288.15 K) was 4.12e-06, the solubility (mole fraction) (in water, 293.15 K) was 5.68e-06 and the solubility (mole fraction) (in water, 298.15 K) was 7.36e-06. For the same compound, the solubility (mole fraction) (in water, 303.15 K) was 9.61e-06, the solubility (mole fraction) (in water, 308.15 K) was 1.24e-05 and the solubility (mole fraction) (in water, 313.15 K) was 1.59e-05. The solubility (mole fraction) (in water, 318.15 K) was 2.03e-05 and the solubility (mole fraction) (in water, 323.15 K) was 2.57e-05.
